Data on 22 compounds can be found in patent US20100056565A1, “Heterocyclic Derivatives as M3 Muscarinic Receptors” (priority 2007, published 2010).

Assay [1] addresses T1, Recombinant human M3 receptor (Homo sapiens, UniProt P20309).
T1 construct: expressed in transfected cells; host or cells: CHO-K1 cells (membranes)
Nature of the assay: biochemical. In kind it is binding.

Assay [2] addresses T2, human muscarinic receptors (M3) (Homo sapiens, UniProt P20309).
T2 construct: purchased
Put plainly: Muscarinic receptor radioligand binding assay, [3H]-NMS, filter plate format. The method, then:
Radioligand binding studies utilising [^3H]-N-methyl scopolamine ([^3H]-NMS) and commercially available cell membranes expressing the human muscarinic receptors (M2 and M3) were used to assess the affinity of muscarinic antagonists for M2 and M3 receptors. Membranes in TRIS buffer were incubated in 96-well plates with [^3H]-NMS and M3 antagonist at various concentrations for 3 hours. Membranes and bound radioligand were then harvested by filtration and allowed to dry overnight. Scintillation fluid was then added and the bound radioligand counted using a Canberra Packard Topcount scintillation counter

[3] abbreviates: SPA format, read-out: M3 Ki (SPA format).
Setting [4] is: filter plate format, read-out: M3 Ki (Filter plate format).
Where [5] appears, read: M3, filter plate assay, read-out: Ki value in the filter plate assay.

Molecules are shown by their SMILES. Where a name gives a salt, the structure may show the parent alone. Read-outs that look alike come from different tables or passages of the source.

T2 sequence (P20309 whole entry): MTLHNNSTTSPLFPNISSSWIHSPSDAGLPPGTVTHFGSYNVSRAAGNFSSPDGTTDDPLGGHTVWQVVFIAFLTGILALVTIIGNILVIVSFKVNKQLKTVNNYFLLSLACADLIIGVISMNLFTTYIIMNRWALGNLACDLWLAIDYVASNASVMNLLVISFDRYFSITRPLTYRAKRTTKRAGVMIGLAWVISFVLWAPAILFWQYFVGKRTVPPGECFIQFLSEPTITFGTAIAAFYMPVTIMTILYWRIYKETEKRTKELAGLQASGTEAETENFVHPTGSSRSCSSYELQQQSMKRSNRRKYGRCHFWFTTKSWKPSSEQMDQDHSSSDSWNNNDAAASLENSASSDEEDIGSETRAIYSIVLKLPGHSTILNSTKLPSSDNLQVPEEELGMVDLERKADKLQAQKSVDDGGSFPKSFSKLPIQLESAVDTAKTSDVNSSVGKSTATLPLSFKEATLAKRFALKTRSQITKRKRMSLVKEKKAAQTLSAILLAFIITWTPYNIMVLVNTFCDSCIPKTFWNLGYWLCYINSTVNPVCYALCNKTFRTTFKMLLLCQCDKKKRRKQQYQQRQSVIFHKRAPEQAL
T1 sequence (P20309 whole entry): as above

Broadly, the Ki is the equilibrium dissociation constant of an inhibitor or competing ligand from its target. Regarding `OC(c1ccccc1)(c1ccccc1)c1ncc(C[N+]23CCC(CC2)C(Oc2ccccc2)C3)o1` (single isomer, unassigned; enantiomer 1) [Example 1, 1-[2-(Hydroxy-diphenyl-methyl)-oxazol-5-ylmethyl]-3-phenoxy-1-azoniabicyclo[2.2.2]octane bromide, enantiomer 1], the Ki in assay [1] (setting [3]) and in assay [2] (setting [4]) was more than 20 nM throughout.

As for `OC(c1ccccc1)(c1ncc(C[N+]23CCC(CC2)C(Oc2ccccc2)C3)o1)C1CCCCC1` (single isomer, unassigned; enantiomer 1) [Example 3, 1-[2-[(RS)—(Cyclohexyl-hydroxy-phenyl-methyl)]-oxazol-5-ylmethyl]-3-phenoxy-1-azonia-bicyclo[2.2.2]octane bromide, enantiomer 1], in assay [2] (setting [4]), the Ki lay in the range of 5 to 20 nM.

With `OC(c1ccccc1)(c1ccccc1)c1ncc(C[N+]23CCC(CC2)C(Oc2ccccc2)C3)o1` (single isomer, unassigned; enantiomer 2) [Example 2, 1-[2-(Hydroxy-diphenyl-methyl)-oxazol-5-ylmethyl]-3-phenoxy-1-azoniabicyclo[2.2.2]octane bromide, enantiomer 2], the Ki is less than 5 nM in assay [1] (setting [3]), 0.9 nM in assay [2] (setting [5]) and less than 5 nM in assay [2] (setting [4]).

As for `OC(c1ccccc1)(c1ncc(C[N+]23CCC(CC2)C(Oc2ccccc2)C3)o1)C1CCCCC1` (single isomer, unassigned; enantiomer 2) [Example 4, 1-[2-[(RS)—(Cyclohexyl-hydroxy-phenyl-methyl)]-oxazol-5-ylmethyl]-3-phenoxy-1-azonia-bicyclo[2.2.2]octane bromide, enantiomer 2], the figures for the Ki in assay [2] (setting [5]) and in assay [2] (setting [4]) were 2 nM and less than 5 nM, respectively.

For the compound `O=C(O[C@@H]1C[N+]2(Cc3cnc([C@](O)(c4ccccc4)C4CCCCC4)o3)CCC1CC2)c1ccccc1` [Example 10, (S)-3-benzoyloxy-1-[2-((R)-cyclohexyl-hydroxy-phenyl-methyl)-oxazol-5-ylmethyl]-1-azonia-bicyclo[2.2.2]octane; formate], the Ki in assay [1] (M3 Ki (SPA format, SPA format)) is 5 to 20 nM; in assay [2] (M3 Ki (Filter plate format), filter plate format) it was 5 to 20 nM.

With `O[C@](c1ccccc1)(c1ncc(C[N+]23CCC(c4ccccc4)(CC2)CC3)o1)C1CCCCC1` [Example 11, 1-[2-((R)-cyclohexyl-hydroxy-phenyl-methyl)-oxazol-5-ylmethyl]-4-phenyl-1-azonia-bicyclo[2.2.2]octane; formate], the Ki in assay [1] (setting [3]) and in assay [2] (setting [4]) was more than 20 nM throughout.

Regarding `OC(c1ccccc1)(c1ccccc1)c1noc(C[N+]23CCC(CC2)[C@@H](Oc2ccsc2)C3)n1` [Example 115, (R)-1-[3-(Hydroxy-diphenyl-methyl)-[1,2,4]oxadiazol-5-ylmethyl]-3-(thiophen-3-yloxy)-1-azonia-bicyclo[2.2.2]octane; chloride], the Ki in assay [1] (setting [3]) was less than 5 nM.

Consider `OC(c1ccccc1)(c1ccccc1)c1noc(C[N+]23CCC(CC2)[C@@H](Oc2cccs2)C3)n1` [Example 116, (R)-1-[3-(Hydroxy-diphenyl-methyl)-[1,2,4]oxadiazol-5-ylmethyl]-3-(thiophen-2-yloxy)-1-azonia-bicyclo[2.2.2]octane; chloride], for which the Ki in assay [1] (setting [3]) is less than 5 nM.

Take `OC(c1ccccc1)(c1ccccc1)c1noc(C[N+]23CCC(CC2)[C@@H](Oc2cccc(Cl)c2)C3)n1` [Example 117, (R)-3-(3-Chloro-phenoxy)-1-[3-(hydroxy-diphenyl-methyl)-[1,2,4]oxadiazol-5-ylmethyl]-1-azonia-bicyclo[2.2.2]octane; chloride]: the Ki in assay [1] (setting [3]) was less than 5 nM.

For `OC(c1ccccc1)(c1ccccc1)c1noc(C[N+]23CCC(CC2)[C@@H](Sc2ccccc2)C3)n1` [Example 118, (R)-1-[3-(Hydroxy-diphenyl-methyl)-[1,2,4]oxadiazol-5-ylmethyl]-3-phenylsulfanyl-1-azonia-bicyclo[2.2.2]octane; chloride], the Ki in assay [1] (setting [3]) is less than 5 nM.

As to `O[C@](c1ccccc1)(c1ncc(C[N+]23CCC(CC2)[C@@H](SC2CCCCC2)C3)o1)C1CCCCC1` [Example 119, (R)-1-[2-((R)—Cyclohexyl-hydroxy-phenyl-methyl)-oxazol-5-ylmethyl]-3-cyclohexylsulfanyl-1-azonia-bicyclo[2.2.2]octane; bromide], the Ki in assay [1] (setting [3]) was less than 5 nM.

With `CC(C)CS[C@H]1C[N+]2(Cc3cnc([C@](O)(c4ccccc4)C4CCCCC4)o3)CCC1CC2` [Example 120, (R)-1-[2-((R)—Cyclohexyl-hydroxy-phenyl-methyl)-oxazol-5-ylmethyl]-3-isobutylsulfanyl-1-azonia-bicyclo[2.2.2]octane; bromide], the Ki in assay [1] (setting [3]) is less than 5 nM.

Consider `O[C@](c1ccccc1)(c1nnc(C[N+]23CCC(CC2)[C@H](CSc2ccccc2)C3)o1)C1CCCCC1` [Example 121, (S)-1-[5-((R)—Cyclohexyl-hydroxy-phenyl-methyl)-[1,3,4]oxadiazol-2-ylmethyl]-3-phenylsulfanylmethyl-1-azonia-bicyclo[2.2.2]octane; bromide], for which the Ki in assay [1] (setting [3]) was less than 5 nM.

On to `O[C@](c1ccccc1)(c1nnc(C[N+]23CCC(CC2)[C@@H](Oc2cccc(F)c2)C3)o1)C1CCCCC1` [Example 134, (R)-1-[5-((R)—Cyclohexyl-hydroxy-phenyl-methyl)-[1,3,4]oxadiazol-2-ylmethyl]-3-(3-fluoro-phenoxy)-1-azonia-bicyclo[2.2.2]octane; bromide], for which the Ki in assay [1] (setting [3]) was less than 5 nM.

In the case of `OC(c1ccccc1)(c1ccccc1)c1noc(C[N+]23CCC(CC2)[C@@H](Oc2ccc4c(c2)OCO4)C3)n1` [Example 135, (R)-3-(Benzo[1,3]dioxol-5-yloxy)-1-[3-hydroxy-diphenyl-methyl)-[1,2,4]oxadiazol-5-ylmethyl]-1-azonia-bicyclo[2.2.2]octane; chloride], the Ki in assay [1] (setting [3]) was less than 5 nM.

Take `OC(c1ccccc1)(c1ccccc1)c1noc(C[N+]23CCC(CC2)[C@@H](Oc2ccc(Cl)cc2)C3)n1` [Example 136, (R)-3-(4-Chloro-phenoxy)-1-[3-(hydroxy-diphenyl-methyl)-[1,2,4]oxadiazol-5-ylmethyl]-1-azonia-bicyclo[2.2.2]octane; chloride]: the Ki in assay [1] (setting [3]) was less than 5 nM.

Consider `OC(c1ccccc1)(c1ccccc1)c1noc(C[N+]23CCC(CC2)[C@@H](Oc2cccc(C(F)(F)F)c2)C3)n1` [Example 137, (R)-1-[3-(Hydroxy-diphenyl-methyl)-[1,2,4]oxadiazol-5-ylmethyl]-3-(3-trifluoromethyl-phenoxy)-1-azonia-bicyclo[2.2.2]octane; chloride], for which the inhibitory constant (Ki) in assay [1] (setting [3]) is less than 5 nM.

For the compound `OC(c1ccccc1)(c1ccccc1)c1noc(C[N+]23CCC(CC2)[C@@H](SC2CCCCC2)C3)n1` [Example 138, (R)-3-Cyclohexylsulfanyl-1-[3-(hydroxy-diphenyl-methyl)-[1,2,4]oxadiazol-5-ylmethyl]-1-azonia-bicyclo[2.2.2]octane; chloride], in assay [1] (setting [3]), the Ki was less than 5 nM.

Regarding `N#Cc1cccc(O[C@H]2C[N+]3(Cc4nc(C(O)(c5ccccc5)c5ccccc5)no4)CCC2CC3)c1` [Example 139, (R)-3-(3-Cyano-phenoxy)-1-[3-(hydroxy-diphenyl-methyl)-[1,2,4]oxadiazol-5-ylmethyl]-1-azonia-bicyclo[2.2.2]octane; chloride], the Ki in assay [1] (setting [3]) is less than 5 nM.

In the case of `O[C@](c1ccccc1)(c1nnc(C[N+]23CCC(CC2)[C@@H](OCc2ccc(F)cc2)C3)o1)C1CCCCC1` [Example 140, (R)-1-[5-((R)—Cyclohexyl-hydroxy-phenyl-methyl)-[1,3,4]oxadiazol-2-ylmethyl]-3-(4-fluoro-benzyloxy)-1-azonia-bicyclo[2.2.2]octane; bromide], the Ki in assay [1] (setting [3]) was less than 5 nM.

Regarding `OC(c1ccccc1)(c1ccccc1)c1noc(C[N+]23CCC(CC2)[C@@H](OCc2ccc(F)cc2)C3)n1` [Example 141, (R)-3-(4-Fluoro-benzyloxy)-1-[3-(hydroxy-diphenyl-methyl)-[1,2,4]oxadiazol-5-ylmethyl]-1-azonia-bicyclo[2.2.2]octane; chloride], in assay [1] (setting [3]), the Ki was less than 5 nM.

With `O[C@](c1ccccc1)(c1nnc(C[N+]23CCC(CC2)[C@@H](Oc2ccc(F)cc2)C3)o1)C1CCCCC1` [Example 142, (R)-1-[5-((R)—Cyclohexyl-hydroxy-phenyl-methyl)-[1,3,4]oxadiazol-2-ylmethyl]-3-(4-fluoro-phenoxy)-1-azonia-bicyclo[2.2.2]octane; bromide], the Ki in assay [1] (setting [3]) was less than 5 nM.
